The source of these data is PMC11511194, “Key Factors for Improving Predictive Accuracy and Avoiding Overparameterization of the PBPK Absorption Model in Food Effect Studies of Weakly Basic Water-Insoluble Compounds in Immediate Release Formulations” (Pharmaceutics, 2024).

Data set [1] deals with CYP2J2. Put plainly: CYP2J2 intrinsic clearance fitted in PBPK model. Conditions: Fitted to in vivo metabolic fraction and SAD C-T profiles. The text has this:
(§1) S2. PBPK model development and validation physicochemical parameters for these three model drugs, including protein binding and Blood-to-Plasma (B/P) ratio, were obtained from experimental results, while log P and pKa were estimated based on the molecular formula using Gastro Plus ADMET software (version 10.3, […]
(§2) S2.1. Rivaroxaban PBPK model development and validation
(§3) S2.1.1. Rivaroxaban PBPK model development for metabolism and elimination module […]
(§4) its systemic clearance, CLint_CYP3A4, CLint_CYP2J2 and CLHLM were fitted according to the metabolic fraction of rivaroxaban in vivo and concentration-time profiles from the SAD clinical trial in Caucasian subjects under fasted state. […]
(§5) permeability-limited kidney and liver models were employed to account for the active efflux […]
(§6) Physicochemical properties

Details of data set [2]: method as in earlier work. The note with it: optimized rivaroxaban model input, cited from earlier work.
Data set [3] in a line: Dissolution tests of formulations in biorelevant media (USP 2). The format is physicochemical. Conditions: formulation, 500 and 900 mL FaSSIF or FeSSIF media. On the procedure: Dissolution tests employing biorelevant media have gained widespread utilization in formulation development, offering valuable insights into the behavior of APIs and their respective formulations within the GI tract. In this study, dissolution behavior was assessed using the calibrated USP 2 apparatus (Pion Scientific Instruments, Billerica, MA, USA) across various media, including FaSSGF, FaSSIF, and FeSSIF. The fasted gastric environment was simulated with 300 mL of FaSSGF medium, while FaSSIF and FeSSIF media were used to mimic the intestinal conditions under fasted and fed states, with volumes of 500 and 900 mL, respectively. Dissolution experiments were conducted at a paddle speed of 75 rpm, with the medium temperature maintained at 37 ± 0.5 °C. Sample concentrations were monitored at 1 min intervals via an in situ fiber-optic UV dissolution real-time monitoring system. All experiments were conducted in triplicate.

A short description of data set [4]: Passive diffusion clearance and unbound fractions of permeability-limited kidney and liver models. Conditions: Liver, Fitted.
Source text: as §1, §2, §3, §4, §5, §6

For data set [5], the system named is ABCB1 (P-gp/MDR1). Briefly: P-gp efflux clearance in kidney and liver fitted in PBPK model. The note with it: human, permeability-limited liver model, Canalicular, read-out: CLint,T.
Source text: as §1, §2, §3, §4, §5, §6

For data set [6] the following is noted: ticagrelor; supplement ref 17; cited from earlier work.

Structures are written as SMILES. Like-named read-outs stand apart in the source and are kept apart here.

For `O=C(NC[C@H]1CN(c2ccc(N3CCOCC3=O)cc2)C(=O)O1)c1ccc(Cl)s1` [Rivaroxaban], in data set [1], the “Intrinsic clearance of CYP 2J2” value worked out at 2.500 µL/min/pmol. Moreover, the PAMPA in data set [2] (Fasted (FaSSIF)) was 52.6 10E-06 cm/s; in data set [2] (Fed (FeSSIF)) it was 40.80 10E-06 cm/s. For the same compound, the dissolution percentages entry in data set [3] was “below 80%”. Moreover, in data set [4], the fuIW was found to be 0.193. In data set [5], the hepatocyte CLint came out at 0.03 µL/min/1e6 cells.

`CCCSc1nc(N[C@@H]2C[C@H]2c2ccc(F)c(F)c2)c2nnn([C@@H]3C[C@H](OCCO)[C@@H](O)[C@H]3O)c2n1` [Ticagrelor]: the “CLR typical renal clearance” value in data set [6] is reported as 0.00584 L/h.
